According to patent US20130216615A1, “Pharmaceutical Compositions Containing Dimethyl Fumarate” (priority 2012, published 2013):
Where a name gives a salt, the structure may show the parent alone.

Key:
[1] = human, in vivo
Protocol: (§1) A randomized, double-blind, placebo-controlled study in healthy adult volunteers was conducted in which a total of 56 subjects were randomized to receive 4 days' treatment with DMF 240 mg BID, DMF 240 mg TID, DMF 360 mg BID or placebo, with aspirin 325 mg or matching aspirin placebo administered 30 minutes before each DMF or DMF placebo dose. An additional 8 patients were assigned to a modified dosing group receiving DMF 120 mg or placebo 6 times daily (3 doses at hourly intervals in the morning and a further 3 doses at hourly intervals in the evening). There were 6 subjects per group, except for the modified dosing regimen, where an additional 2 subjects were assigned to placebo.
(§2) Flushing severity was assessed by 2 validated subject-reported measures, the global Flushing Severity Scale (GFSS) and the Flushing Severity Scale (FSS), which are adapted from the flushing scale described in Norquist J M, et al. Curr Med Res Opin 23:1547-1560 (2007). Both of these measures rate flushing severity on a scale of 0-10, where 0=no flushing, 1-3=mild flushing, 4-6=moderate flushing, 7-9=severe flushing, and 10=extreme flushing. The GFSS is a visual-analogue scale measuring redness, warmth, tingling and itching of the skin experienced over the preceding 24 h. Subjects completed the GFSS immediately before the first dose of study drug (0 h) on days 1 to 4, again at 0 h on day 5 and once more at follow-up on day 11. On the FSS, subjects rated their overall flushing and 4 items describing specific flushing symptoms (redness, warmth, tingling, itching) at the time of administration of the questionnaire. The FSS scale was administered at 16 time points over 12 h (Hours 0, 0.5, 1, 1.5, 2, 2.5, 3, 4, 5, 6, 7, 8, 9, 10, 11, 12) on days 1 to 4 and once on day 5 (24 h after the first day 4 dose) to assess the quality and intensity of subject-reported flushing symptoms in real time. Subjects rated 5 items relating only to the period since they last answered the questionnaire and/or received study drug.

[2] = PK of DMF with or without aspirin in healthy adult volunteers, plasma MMF; type: in vivo, human; conditions: aspirin 325 mg 30 minutes before each DMF dose
Protocol: The concentration of MMF was determined by high pressure liquid chromatography with tandem mass spectrometry, using […] as the internal standard. Further pharmacokinetic parameters were derived by non-compartmental analysis

[3] = Laser Doppler perfusion of facial skin during flushing; type: in vivo, human; conditions: aspirin pretreatment before DMF
Protocol: Laser Doppler perfusion was used as an exploratory quantitative measure of facial skin perfusion during flushing. This technique uses non-invasive imaging of superficial tissue blood perfusion, recorded as Blood Perfusion Units on a relative units scale. Laser Doppler perfusion was measured at the same 16 timepoints as the FSS.

[4] = Subject-reported flushing severity (GFSS, FSS); conditions: 325 mg non-enteric coated aspirin 30 minutes prior to DMF dosing, healthy volunteer study
Protocol: as §1, §2

Row | Compound | flushing severity on the FSS [1] | mean GFSS score ([1]; 2 day) | effect of aspirin pretreatment on MMF concentration-time profiles [2] | magnitude of Doppler perfusion response [3] | occurrence and severity of flushing [4]
1 | COC(=O)/C=C/C(=O)OC [DMF, dimethyl fumarate] | mild to moderate | 1.5-3.5 |  |  | 
2 | CC(=O)Oc1ccccc1C(=O)O [aspirin] |  |  | no apparent effect | decreased | reduce the occurrence and severity of flushing
